Laboratory results reported in ChEMBL document CHEMBL1147149, “Ecdysteroids from Serratula wolffii roots” (2007).

Tested on: Acyrthosiphon pisum
Experiment: Toxicity against larvae of orally dosed Acyrthosiphon pisum Harris
Assay type: functional

| Structure (SMILES) | LC50 |
| --- | --- |
| C/C(=C\CCC(C)(C)O)[C@H]1CC[C@@]2(O)C3=CC(=O)[C@@H]4C[C@@H](O)[C@@H](O)C[C@]4(C)C3CC[C@]12C (stereo partly drawn) | >100 ppm |
| C/C(=C\CCC(C)(C)O)[C@H]1CC[C@@]2(O)C3=CC(=O)[C@@H]4C[C@@H](O)[C@@H](O)[C@@H](O)[C@]4(C)C3CC[C@]12C (stereo partly drawn) | 48.5 ppm |
| CC(C)(O)CC[C@@H](O)[C@](C)(O)[C@H]1CC[C@@]2(O)C3=CC(=O)[C@@H]4C[C@@H](O)[C@@H](O)C[C@]4(C)[C@H]3CC[C@]12C [20-HYDROXYECDYSONE] | 1.07 ppm |
